Reference: patent US8304422B2, “Compositions and methods for inhibition of the JAK pathway” (Rigel Pharmaceuticals, Inc., priority 2007, dated 2012)

Test system: BaF3 V617F cells; UKE-1
Assay: Proliferation Assay (Cell Titer-Glo; Example 7)
Format: cell-based
Settings: proliferation 72 hours, inhibit JAK2 activity, cell line (BaF3 V617F or UKE-1) not stated
Protocol: BaF3 V617F cells are maintained and plated in RPMI with 10% FBS. Plating density for these cells is 1×10^5 cells/mL.
UKE-1 are maintained and plated in Iscove's DMEM containing 10% FBS, 10% equine serum, 1% penicillin/streptomycin and 1 uM hydrocortisone. Plating density for these cells is 0.4×10^6 cells/mL
The cells were resuspended in a corresponding medium at a required cell density (see above). 100μ of cell suspension was added to each well of a flat bottom 96 well white plate. The compound was serially diluted in DMSO from 5 mM in 3-fold dilutions, and then diluted 1:250 in the RPMI 1640 medium containing 5% FBS and pen/strep. 100 μL of resulting 2× compound solution was added per well in duplicate and the cells were allowed to proliferate for 72 hours at 37° C.
Proliferation was measured using Cell Titer-Glo. The substrate was thawed and allowed to come to room temperature. After removal of top 100 μL of medium from each well, 100 μL of the premixed Cell Titer-Glo reagent was added to each well. The plates were mixed on an orbital shaker for three minutes to induce lysis and incubated at ambient temperature for an additional five minutes to allow the signal to equilibrate. The Luminescence was read on the Wallac Plate Reader.
The results of the ability of the compounds of the invention to inhibit JAK2 activity, when tested in the above assay, are shown in the following Table XI wherein the level of activity (i.e., the IC50) for each compound is indicated in Table XI. The compound numbers in Table XI refers to the compounds disclosed herein as being prepared by the methods disclosed herein: […]

Compound | IC50
Cc1cc(Nc2ncc(Cl)c(Nc3cccc(S(=O)(=O)NC(C)(C)C)c3)n2)ccc1N1C[C@@H]2C[C@H]1CN2C [I-22, 5-Chloro-N4-[(3-(1,1-dimethylethylamino)sulfonyl)phenyl]-N2-[3-methyl-4-[(1S,4S)-5-methyl-2,5-diazabicyclo[2.2.1]hept-2-yl]phenyl]-2,4-pyrimidinediamine] | 0.549 µM
COc1cc(C)c(Nc2ncc(Cl)c(Nc3ccc(CCNS(=O)(=O)C4CC4)cc3)n2)c(C)c1 [II-46, 5-Chloro-N4[4-(N-cyclopropylsulfonylamino)ethylphenyl]-N2-[4-(2,6-dimethyl-methoxy)phenyl]-2,4-pyrimidinediamine] | 0.592 µM
CC(C)(C)Oc1ccc(Nc2ncc(Cl)c(Nc3ccc(CCNS(=O)(=O)C4CC4)cc3)n2)cc1 [II-47, 5-Chloro-N4[4-(N-cyclopropylsulfonylamino)ethylphenyl]-N2-[4-(2,6-dimethyl-ethoxy)phenyl]-2,4-pyrimidinediamine] | 0.487 µM
Cc1cc(OC(C)C)cc(C)c1Nc1ncc(Cl)c(Nc2ccc(CCNS(=O)(=O)C3CC3)cc2)n1 [II-48, 5-Chloro-N4[4-(N-cyclopropylsulfonylamino)ethylphenyl]-N2-[4-(2,6-dimethyl-isopropoxy)phenyl]-2,4-pyrimidinediamine] | 0.698 µM
CC1CN(CCOc2ccc(Nc3ncc(Cl)c(Nc4ccc(CCNS(=O)(=O)C5CC5)cc4)n3)cc2)CC(C)O1 (stereo not shown) [II-49] | 0.339 µM
CN1CCN(c2ccc(Nc3ncc(Cl)c(Nc4ccc(CCNS(=O)(=O)C5CC5)cc4)n3)cc2)CC1 [II-51, 5-Chloro-N4[4-(N-cyclopropylsulfonylamino)ethylphenyl]-N2-[4-(4-methylpiperazino)phenyl]-2,4-pyrimidinediamine] | 1.07 µM
Cc1cc(N2CCN(C)CC2)ccc1Nc1ncc(Cl)c(Nc2ccc(CCNS(=O)(=O)C3CC3)cc2)n1 [II-52, 5-Chloro-N4[4-(N-cyclopropylsulfonylamino)ethylphenyl]-N2-[4-(4-methylpiperazino)-2-methylphenyl]-2,4-pyrimidinediamine] | 6.12 µM
CN1CCN(c2ccc(Nc3ncc(Cl)c(Nc4ccc(CCNS(=O)(=O)C5CC5)cc4)n3)cn2)CC1 [II-53, 5-Chloro-N4[4-(N-cyclopropylsulfonylamino)ethylphenyl]-N2-[4-(4-methylpiperazino)pyrido]-2,4-pyrimidinediamine] | 1.98 µM
CCCN1CCN(c2ccc(Nc3ncc(Cl)c(Nc4ccc(CCNS(=O)(=O)C5CC5)cc4)n3)c(C(F)(F)F)c2)CC1 [II-54, 5-Chloro-N4[4-(N-cyclopropylsulfonylamino)ethylphenyl]-N2-[4-(4-propylpiperazino)-2-trifluoromethylphenyl]-2,4-pyrimidinediamine] | 1.97 µM
CS(=O)(=O)N1CCN(c2ccc(Nc3ncc(Cl)c(Nc4ccc(CCNS(=O)(=O)C5CC5)cc4)n3)c(C(F)(F)F)c2)CC1 [II-55, 5-Chloro-N4[4-(N-cyclopropylsulfonylamino)ethylphenyl]-N2-[4-(4-methylsulfonylpiperazino)-2-trifluoromethylphenyl]-2,4-pyrimidinediamine] | 8.88 µM
CN1CCN(c2ccc(Nc3ncc(Cl)c(Nc4ccc(CCNS(=O)(=O)C5CC5)cc4)n3)c(F)c2)CC1 [II-56, 5-Chloro-N4[4-(N-cyclopropylsulfonylamino)ethylphenyl]-N2-[4-(4-methylpiperazino)-2-fluorophenyl]-2,4-pyrimidinediamine] | 0.639 µM
CCN1CCN(c2ccc(Nc3ncc(Cl)c(Nc4ccc(CCNS(=O)(=O)C5CC5)cc4)n3)c(C(F)(F)F)c2)CC1 [II-57, 5-Chloro-N4[4-(N-cyclopropylsulfonylamino)ethylphenyl]-N2-[4-(4-ethylpiperazino)-2-trifluoromethylphenyl]-2,4-pyrimidinediamine] | 1.7 µM
O=S(=O)(NCCc1ccc(Nc2nc(Nc3ccc(-c4ccccc4)cc3)ncc2Cl)cc1)C1CC1 [II-58, 5-Chloro-N4[4-(N-cyclopropylsulfonylamino)ethylphenyl]-N2-[4-biphenyl]-2,4-pyrimidinediamine] | 16.2 µM
Cc1cnc(Nc2ccc(S(=O)(=O)C(F)(F)F)cc2)nc1Nc1ccc(CCNS(=O)(=O)C2CC2)cc1 [II-59] | 3.14 µM
Cc1cnc(Nc2ccc(N3CCN(C4CC5CCC4C5)CC3)cc2)nc1Nc1ccc(CNS(=O)(=O)C2CC2)cc1 (stereo not shown) [II-60, N-(4-(2-(4-(4-(bicyclo[2.2.1]heptan-2-yl)piperazin-1-yl)phenylamino)-5-methylpyrimidin-4-ylamino)benzyl)cyclopropanesulfonamide] | 0.391 µM
O=S(=O)(NCc1ccc(Nc2nc(Nc3ccc(N4CCN(C5CC6CCC5C6)CC4)cc3)ncc2Cl)cc1)C1CC1 (stereo not shown) [II-61, N-(4-(2-(4-(4-(bicyclo[2.2.1]heptan-2-yl)piperazin-1-yl)phenylamino)-5-chloropyrimidin-4-ylamino)benzyl)cyclopropanesulfonamide] | 5.97 µM

Compound | IC50
COc1cc(C)c(Nc2ncc(C)c(Nc3ccc(CCNS(=O)(=O)C4CC4)cc3)n2)c(C)c1 [II-62] | 0.438 µM
CCOc1cc(C)c(Nc2ncc(C)c(Nc3ccc(CCNS(=O)(=O)C4CC4)cc3)n2)c(C)c1 [II-63] | 0.53 µM
Cc1cnc(Nc2c(C)cc(OC(C)C)cc2C)nc1Nc1ccc(CCNS(=O)(=O)C2CC2)cc1 [II-64] | 0.548 µM
Cc1cnc(Nc2ccc(OCCN3CC(C)OC(C)C3)cc2)nc1Nc1ccc(CCNS(=O)(=O)C2CC2)cc1 (stereo not shown) [II-65] | 0.327 µM
Cc1cnc(Nc2ccc(N3CCN(C)CC3)cc2)nc1Nc1ccc(CCNS(=O)(=O)C2CC2)cc1 [II-67] | 0.717 µM
Cc1cc(N2CCN(C)CC2)ccc1Nc1ncc(C)c(Nc2ccc(CCNS(=O)(=O)C3CC3)cc2)n1 [II-68] | 4.14 µM
Cc1cnc(Nc2ccc(N3CCN(C)CC3)nc2)nc1Nc1ccc(CCNS(=O)(=O)C2CC2)cc1 [II-69] | 1.81 µM
Cc1cnc(Nc2ccc(N3CCN(C)CC3)cc2C(F)(F)F)nc1Nc1ccc(CCNS(=O)(=O)C2CC2)cc1 [II-70] | 1.39 µM
CCCN1CCN(c2ccc(Nc3ncc(C)c(Nc4ccc(CCNS(=O)(=O)C5CC5)cc4)n3)c(C(F)(F)F)c2)CC1 [II-71] | 1.4 µM
Cc1cnc(Nc2ccc(N3CCN(S(C)(=O)=O)CC3)cc2C(F)(F)F)nc1Nc1ccc(CCNS(=O)(=O)C2CC2)cc1 [II-72] | 18.3 µM
Cc1cnc(Nc2ccc(N3CCN(C)CC3)cc2F)nc1Nc1ccc(CCNS(=O)(=O)C2CC2)cc1 [II-73] | 0.595 µM
CCN1CCN(c2ccc(Nc3ncc(C)c(Nc4ccc(CCNS(=O)(=O)C5CC5)cc4)n3)c(C(F)(F)F)c2)CC1 [II-74] | 1.49 µM
Cc1cnc(Nc2ccc(-c3ccccc3)cc2)nc1Nc1ccc(CCNS(=O)(=O)C2CC2)cc1 [II-75] | 10.4 µM
Cc1cc(CNS(=O)(=O)C2CC2)cc(Nc2nc(Nc3ccc(N4CCN(C5CC6CCC5C6)CC4)cc3)ncc2Cl)c1 (stereo not shown) [II-76, N-(3-(2-(4-(4-(bicyclo[2.2.1]heptan-2-yl)piperazin-1-yl)phenylamino)-5-chloropyrimidin-4-ylamino)-5-methylbenzyl)cyclopropanesulfonamide] | 1.31 µM
Cc1cc(CNS(=O)(=O)C2CC2)cc(Nc2nc(Nc3ccc(N4CCN(C5CC6CCC5C6)CC4)cc3)ncc2C)c1 (stereo not shown) [II-77, N-(3-(2-(4-(4-(bicyclo[2.2.1]heptan-2-yl)piperazin-1-yl)phenylamino)-5-methylpyrimidin-4-ylamino)-5-methylbenzyl)cyclopropanesulfonamide] | 1.32 µM
